# What was measured:
# [1] = target: T1, α2B Human Adrenergic Receptor (Homo sapiens, UniProt P18089); assay: Equilibrium competition binding, [3H] rauwolscine, membranes of transfected Y-1 cells; conditions: cloned human receptor; [3H] rauwolscine; read-out: pKi Alpha-2 B (converted)
# T1 construct: expressed in transfected cells; host or cells: Y-1 cells
# T1 sequence (P18089 1-450): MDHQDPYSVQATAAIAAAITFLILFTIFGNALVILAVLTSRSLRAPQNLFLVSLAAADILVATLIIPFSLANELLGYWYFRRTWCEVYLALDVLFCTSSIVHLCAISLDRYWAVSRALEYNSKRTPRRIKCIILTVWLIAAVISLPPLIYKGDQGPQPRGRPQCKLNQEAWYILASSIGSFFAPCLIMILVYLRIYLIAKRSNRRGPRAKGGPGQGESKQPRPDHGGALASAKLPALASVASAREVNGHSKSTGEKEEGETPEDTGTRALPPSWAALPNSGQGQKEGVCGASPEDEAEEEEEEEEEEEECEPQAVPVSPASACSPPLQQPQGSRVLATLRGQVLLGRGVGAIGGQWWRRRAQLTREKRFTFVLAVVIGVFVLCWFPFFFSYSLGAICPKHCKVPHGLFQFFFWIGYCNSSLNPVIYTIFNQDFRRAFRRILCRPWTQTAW
# [2] = target: T1, α2B Human Adrenergic Receptor; type: cell-based
# Procedure: (§1) Binding and functional assays were performed using stably transfected human alpha adrenergic receptors. Equilibrium competition binding assays were performed with membrane preparations from cultured LM(tk-) cells stably transfected with the cloned human adrenoceptor subtypes except for α2b, which was expressed in Y-1 cells, using [^3H] prazosin for α1 receptors and [^3H] rauwolscine for α2 receptors.
# Stable cell lines were selected as described above.
# (§2) The agonist activity (expressed as pEC50) was measured as a function of the ability to inhibit the forskolin-stimulated synthesis of cyclic adenosine monophosphate (cAMP). The stably transfected cells were incubated in Ham's F10 with 5 mM theophylline, 10 mM HEPES, 10 μM pargyline, and/or appropriate concentrations of forskolin for 20 min at 37° C. in 5% CO2. The tested compounds were then added to a final concentration of 0.001 nM to 1 μM and incubated for an additional 15 min at 37° C. in 5% CO2. The medium was aspirated and the reaction was stopped by the addition of 100 mM HCl . […] The plates are stored at 4° C. for 15 min and assayed to determine the linear concentration of cAMP. The appropriate dilution is interpolated from the standard curve of cold cAMP. The assessment of cAMP formation is determined by radioimmunoassay (cAMP radioimmunoassay kit; Advanced Magnetics, Cambridge, Mass.). Radioactivity was quantified using a Packard COBRA Auto Gamma counter, equipped with data reduction software.
# [3] = target: α2C Human Adrenergic Receptor (Homo sapiens, UniProt P18825); assay: Equilibrium competition binding, [3H] rauwolscine, membranes of transfected LM(tk-) cells
# [4] = target: T2, α2C Human Adrenergic Receptor (Homo sapiens, UniProt P18825); type: cell-based; parameters: The entire coding region of α2C (1383 bp), including 2 bp of 5′ UT and 400 bp of 3′ UT; expressed in transfected cells; host or cells: LM(tk-) cells; conditions: functional cAMP assay
# T2 sequence (P18825 1-462): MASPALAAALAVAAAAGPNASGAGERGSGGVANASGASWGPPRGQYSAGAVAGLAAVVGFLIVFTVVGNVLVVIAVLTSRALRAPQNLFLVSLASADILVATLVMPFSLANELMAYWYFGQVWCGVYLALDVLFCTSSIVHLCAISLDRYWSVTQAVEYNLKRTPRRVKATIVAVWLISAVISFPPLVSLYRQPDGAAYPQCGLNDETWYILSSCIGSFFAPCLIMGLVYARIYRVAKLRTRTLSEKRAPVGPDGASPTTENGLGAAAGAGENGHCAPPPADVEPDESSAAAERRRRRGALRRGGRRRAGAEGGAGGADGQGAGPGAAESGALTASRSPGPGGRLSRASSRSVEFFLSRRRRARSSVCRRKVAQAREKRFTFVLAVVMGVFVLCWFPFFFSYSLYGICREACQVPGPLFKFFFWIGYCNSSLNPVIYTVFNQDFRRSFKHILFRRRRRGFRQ
# Procedure: as §1
# The insert housing this coding region was an @ 1.8 kb Ncol/EcoRI human spleen genomic fragment which was end-blunted by either T4 polymerase or Klenow fragment of DNA polymerase. Stable cell lines were selected as described above.
# as §2
# rats = conditions: systematic administration, reversed by atipamazole or idazoxan; cited from earlier work
Structure (SMILES),Ki [1],I.A Alpha-2 B ([2]; functional cAMP assay),"EC50 ([2]; inhibition of forskolin-stimulated cAMP, NA: Not Active, read-out: pEC50 Alpha-2 B (converted))",Ki [3],I.A Alpha-2 C [4],antinociception (rats)
"Ic1cc(NC2=NCCN2)cc2[nH]cnc12 [Example 54, 7-Iodo-5-(2-imidazolin-2-ylamino)Benzimidazole]",27.5 nM,0.60,138 nM,200 nM,0.90,
Cc1cccc(C(C)c2cnc[nH]2)c1C (stereo not drawn) [Medetomidine],,,,,,dose-dependent antinociception

# From patent US6403626B1, “Benzimidazole derivatives” (Synaptic Pharmaceutical Corporation, priority 1994, dated 2002)
